According to ChEMBL document CHEMBL5465560, “Selectivity Literature for EUbOPEN Chemogenomic Library” (2024):

How the values were obtained:
[1] = molecular target: Receptor tyrosine-protein kinase erbB-4 (Homo sapiens, UniProt Q15303); test: Selectivity interaction (Kinase panel (Z-LYTE Assay)) EUB0001632a ERBB4; conditions: at 10 µM
[2] = molecular target: Adenosine receptor A2a (Homo sapiens, UniProt P29274); test: Selectivity interaction (Eurofins CEREP Diversity Profile (receptors and ion channels)) EUB0000279b ADORA2A; conditions: at 10 µM
[3] = molecular target: Voltage-dependent N-type calcium channel subunit alpha-1B (Homo sapiens) (UniProt Q00975); test: Selectivity interaction (Eurofins CEREP Diversity Profile (receptors and ion channels)) EUB0000279b CACNA1B; conditions: at 10 µM
Sequence of Voltage-dependent N-type calcium channel subunit alpha-1B (Homo sapiens) (Q00975 whole entry, looked up): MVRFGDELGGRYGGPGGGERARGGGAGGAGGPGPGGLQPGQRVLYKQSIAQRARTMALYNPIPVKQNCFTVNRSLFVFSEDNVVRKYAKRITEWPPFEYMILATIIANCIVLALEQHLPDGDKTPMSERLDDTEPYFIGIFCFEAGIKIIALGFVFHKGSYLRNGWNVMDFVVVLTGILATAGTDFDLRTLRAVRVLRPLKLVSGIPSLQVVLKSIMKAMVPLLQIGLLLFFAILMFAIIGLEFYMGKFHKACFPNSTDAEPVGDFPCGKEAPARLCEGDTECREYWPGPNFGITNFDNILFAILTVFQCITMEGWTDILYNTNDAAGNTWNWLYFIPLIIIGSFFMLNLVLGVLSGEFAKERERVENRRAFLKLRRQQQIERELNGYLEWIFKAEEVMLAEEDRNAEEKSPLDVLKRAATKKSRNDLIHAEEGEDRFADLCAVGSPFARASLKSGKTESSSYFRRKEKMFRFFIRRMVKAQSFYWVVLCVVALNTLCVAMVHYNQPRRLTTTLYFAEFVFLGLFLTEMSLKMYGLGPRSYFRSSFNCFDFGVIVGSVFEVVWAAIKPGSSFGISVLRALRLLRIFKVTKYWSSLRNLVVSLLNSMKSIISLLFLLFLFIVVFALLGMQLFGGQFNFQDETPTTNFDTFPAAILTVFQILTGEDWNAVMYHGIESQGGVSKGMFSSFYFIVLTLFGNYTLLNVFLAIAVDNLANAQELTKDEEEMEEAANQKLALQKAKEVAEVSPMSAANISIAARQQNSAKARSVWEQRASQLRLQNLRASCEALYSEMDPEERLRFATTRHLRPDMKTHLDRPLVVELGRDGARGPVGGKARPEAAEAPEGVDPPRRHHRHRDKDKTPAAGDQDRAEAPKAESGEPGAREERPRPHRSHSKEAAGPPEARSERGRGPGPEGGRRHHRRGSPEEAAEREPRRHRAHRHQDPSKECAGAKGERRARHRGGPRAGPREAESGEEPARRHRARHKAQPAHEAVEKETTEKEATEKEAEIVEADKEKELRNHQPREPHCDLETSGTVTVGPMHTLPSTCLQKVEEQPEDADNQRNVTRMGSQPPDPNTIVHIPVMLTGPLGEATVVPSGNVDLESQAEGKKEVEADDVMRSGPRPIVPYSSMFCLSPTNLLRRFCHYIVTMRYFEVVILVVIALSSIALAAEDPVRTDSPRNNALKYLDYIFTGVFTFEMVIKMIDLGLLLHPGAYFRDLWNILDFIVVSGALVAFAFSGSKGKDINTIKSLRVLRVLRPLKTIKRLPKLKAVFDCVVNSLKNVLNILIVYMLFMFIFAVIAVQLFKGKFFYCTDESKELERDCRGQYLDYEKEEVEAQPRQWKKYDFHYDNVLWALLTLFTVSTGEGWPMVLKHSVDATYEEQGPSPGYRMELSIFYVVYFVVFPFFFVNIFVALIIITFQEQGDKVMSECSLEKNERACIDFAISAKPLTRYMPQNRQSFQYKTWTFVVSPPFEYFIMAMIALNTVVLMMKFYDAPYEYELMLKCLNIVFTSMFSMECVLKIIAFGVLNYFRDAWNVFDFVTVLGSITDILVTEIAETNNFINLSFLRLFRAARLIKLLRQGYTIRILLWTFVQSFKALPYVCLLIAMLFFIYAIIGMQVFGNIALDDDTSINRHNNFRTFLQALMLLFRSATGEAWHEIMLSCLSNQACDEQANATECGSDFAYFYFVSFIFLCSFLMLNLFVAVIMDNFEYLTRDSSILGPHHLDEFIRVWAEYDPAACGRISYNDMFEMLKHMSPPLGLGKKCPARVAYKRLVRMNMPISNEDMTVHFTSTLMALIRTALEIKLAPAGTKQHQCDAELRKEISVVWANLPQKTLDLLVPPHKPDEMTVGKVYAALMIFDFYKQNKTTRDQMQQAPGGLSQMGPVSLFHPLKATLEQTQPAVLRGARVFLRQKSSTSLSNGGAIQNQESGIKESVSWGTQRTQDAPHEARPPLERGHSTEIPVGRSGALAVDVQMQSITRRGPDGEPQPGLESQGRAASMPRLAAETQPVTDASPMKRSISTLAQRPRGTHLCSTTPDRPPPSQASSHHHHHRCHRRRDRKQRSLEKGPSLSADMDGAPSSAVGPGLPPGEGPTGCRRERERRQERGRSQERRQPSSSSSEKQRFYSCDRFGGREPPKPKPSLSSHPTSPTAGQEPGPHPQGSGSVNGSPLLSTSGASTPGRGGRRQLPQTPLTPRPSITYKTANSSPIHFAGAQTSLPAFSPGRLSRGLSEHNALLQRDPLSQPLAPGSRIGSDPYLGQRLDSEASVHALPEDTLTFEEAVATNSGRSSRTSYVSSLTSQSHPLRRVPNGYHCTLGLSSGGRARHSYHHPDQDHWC

[4] = molecular target: Serine/threonine-protein kinase pim-2 (Homo sapiens, UniProt Q9P1W9); conditions: at 10 µM
Sequence of Serine/threonine-protein kinase pim-2 (Q9P1W9 whole entry, looked up): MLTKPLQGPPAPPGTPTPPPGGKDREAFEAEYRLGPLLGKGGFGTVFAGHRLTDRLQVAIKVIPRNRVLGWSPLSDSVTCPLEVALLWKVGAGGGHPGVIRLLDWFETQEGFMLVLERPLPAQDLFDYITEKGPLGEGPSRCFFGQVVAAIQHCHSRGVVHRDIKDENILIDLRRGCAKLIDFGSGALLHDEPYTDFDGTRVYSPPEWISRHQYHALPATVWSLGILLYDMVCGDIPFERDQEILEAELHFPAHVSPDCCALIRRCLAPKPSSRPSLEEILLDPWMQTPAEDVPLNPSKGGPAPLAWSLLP

[5] = molecular target: T1, Interleukin-1 receptor-associated kinase 3 (Homo sapiens) (UniProt Q9Y616); test: Selectivity interaction (KinomeScan (DiscoverX)) EUB0000695a IRAK3; conditions: at 100 nM
T1 sequence (whole entry): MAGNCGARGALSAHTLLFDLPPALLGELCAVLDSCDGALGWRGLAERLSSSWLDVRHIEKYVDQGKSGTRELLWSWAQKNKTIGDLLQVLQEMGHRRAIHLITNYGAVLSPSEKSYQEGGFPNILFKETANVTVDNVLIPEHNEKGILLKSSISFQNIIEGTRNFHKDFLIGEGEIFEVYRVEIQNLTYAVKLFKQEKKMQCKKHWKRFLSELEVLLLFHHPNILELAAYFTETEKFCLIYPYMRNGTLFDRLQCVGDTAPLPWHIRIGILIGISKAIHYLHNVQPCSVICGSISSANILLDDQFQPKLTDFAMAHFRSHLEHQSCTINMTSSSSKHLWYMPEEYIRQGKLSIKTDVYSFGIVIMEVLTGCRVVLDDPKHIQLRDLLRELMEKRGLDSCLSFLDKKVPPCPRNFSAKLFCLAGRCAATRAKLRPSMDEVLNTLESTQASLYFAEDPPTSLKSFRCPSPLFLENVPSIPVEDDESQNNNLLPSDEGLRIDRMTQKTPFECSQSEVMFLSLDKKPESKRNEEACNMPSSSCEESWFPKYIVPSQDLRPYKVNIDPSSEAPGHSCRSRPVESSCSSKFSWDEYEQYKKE

[6] = molecular target: Tyrosine-protein kinase Fes/Fps (Homo sapiens) (UniProt P07332); test: Selectivity interaction (Millipore kinase profiler) EUB0000124b FES; conditions: at 10 µM
Sequence of Tyrosine-protein kinase Fes/Fps (Homo sapiens) (P07332 whole entry): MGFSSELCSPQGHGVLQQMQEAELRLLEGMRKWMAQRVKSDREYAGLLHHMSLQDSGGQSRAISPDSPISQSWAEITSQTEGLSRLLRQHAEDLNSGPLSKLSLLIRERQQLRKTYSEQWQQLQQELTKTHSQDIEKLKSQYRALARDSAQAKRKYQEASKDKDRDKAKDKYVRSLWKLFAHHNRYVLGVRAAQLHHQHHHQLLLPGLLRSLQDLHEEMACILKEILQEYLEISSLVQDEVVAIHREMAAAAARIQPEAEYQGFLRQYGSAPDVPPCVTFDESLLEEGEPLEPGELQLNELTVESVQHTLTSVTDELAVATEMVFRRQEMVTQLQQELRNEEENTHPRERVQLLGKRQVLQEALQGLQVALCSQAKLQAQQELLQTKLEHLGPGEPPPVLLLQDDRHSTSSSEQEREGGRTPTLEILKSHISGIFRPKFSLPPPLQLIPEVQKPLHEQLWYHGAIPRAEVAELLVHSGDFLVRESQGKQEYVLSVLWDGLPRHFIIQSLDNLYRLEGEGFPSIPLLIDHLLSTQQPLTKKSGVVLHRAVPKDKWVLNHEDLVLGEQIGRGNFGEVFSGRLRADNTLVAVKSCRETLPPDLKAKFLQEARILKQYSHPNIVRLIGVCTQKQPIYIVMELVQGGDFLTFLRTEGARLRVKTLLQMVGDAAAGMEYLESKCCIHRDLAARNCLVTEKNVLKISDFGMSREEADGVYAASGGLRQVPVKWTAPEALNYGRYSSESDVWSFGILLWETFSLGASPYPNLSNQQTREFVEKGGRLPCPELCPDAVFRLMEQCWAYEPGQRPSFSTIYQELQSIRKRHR

[7] = molecular target: Serine/threonine-protein kinase 26 (Homo sapiens, UniProt Q9P289); test: Selectivity interaction (KinomeScan (DiscoverX)) EUB0000045b STK26
Sequence of Serine/threonine-protein kinase 26 (Q9P289 2-416 limits assumed): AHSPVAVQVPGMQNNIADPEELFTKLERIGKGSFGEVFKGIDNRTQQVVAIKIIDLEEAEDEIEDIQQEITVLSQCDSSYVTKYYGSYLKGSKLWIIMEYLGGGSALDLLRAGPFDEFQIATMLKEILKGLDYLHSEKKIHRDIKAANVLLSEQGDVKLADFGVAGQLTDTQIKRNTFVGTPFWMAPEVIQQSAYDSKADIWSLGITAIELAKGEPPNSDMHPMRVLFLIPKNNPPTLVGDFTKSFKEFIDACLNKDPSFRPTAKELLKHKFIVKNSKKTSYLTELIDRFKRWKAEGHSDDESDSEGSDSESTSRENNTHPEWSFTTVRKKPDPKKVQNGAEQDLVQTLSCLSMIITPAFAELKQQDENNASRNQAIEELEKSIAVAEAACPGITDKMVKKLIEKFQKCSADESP

[8] = molecular target: T2, Muscle, skeletal receptor tyrosine-protein kinase (Homo sapiens) (UniProt O15146); test: Selectivity interaction (KinomeScan (DiscoverX)) EUB0000045b MUSK
T2 sequence (whole entry): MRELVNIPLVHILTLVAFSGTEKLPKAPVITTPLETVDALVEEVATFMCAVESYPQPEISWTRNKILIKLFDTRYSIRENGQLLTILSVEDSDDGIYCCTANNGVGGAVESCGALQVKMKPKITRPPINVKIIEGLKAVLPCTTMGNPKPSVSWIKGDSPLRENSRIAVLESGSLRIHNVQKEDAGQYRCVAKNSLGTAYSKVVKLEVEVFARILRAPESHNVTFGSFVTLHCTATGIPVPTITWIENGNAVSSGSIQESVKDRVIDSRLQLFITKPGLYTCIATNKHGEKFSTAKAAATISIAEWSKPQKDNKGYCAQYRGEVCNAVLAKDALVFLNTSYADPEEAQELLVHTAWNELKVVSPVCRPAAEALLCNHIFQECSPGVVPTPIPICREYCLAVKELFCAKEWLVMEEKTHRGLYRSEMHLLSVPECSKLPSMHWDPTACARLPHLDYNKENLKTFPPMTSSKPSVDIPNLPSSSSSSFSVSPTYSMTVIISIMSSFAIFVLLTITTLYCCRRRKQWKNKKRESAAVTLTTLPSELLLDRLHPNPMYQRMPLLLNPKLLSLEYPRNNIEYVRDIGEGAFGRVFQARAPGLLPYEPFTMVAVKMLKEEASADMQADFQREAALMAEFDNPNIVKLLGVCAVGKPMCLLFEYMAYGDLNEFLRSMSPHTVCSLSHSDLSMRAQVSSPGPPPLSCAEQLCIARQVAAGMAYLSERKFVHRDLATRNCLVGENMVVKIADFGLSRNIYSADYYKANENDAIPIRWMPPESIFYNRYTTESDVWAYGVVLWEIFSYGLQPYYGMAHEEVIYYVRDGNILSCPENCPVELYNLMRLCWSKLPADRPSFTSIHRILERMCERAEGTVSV

[9] = molecular target: T3, Uncharacterized serine/threonine-protein kinase SBK3 (Homo sapiens) (UniProt P0C264); test: Selectivity interaction (KinomeScan (DiscoverX)) EUB0001079a SBK3; conditions: at 1 µM
T3 sequence (whole entry): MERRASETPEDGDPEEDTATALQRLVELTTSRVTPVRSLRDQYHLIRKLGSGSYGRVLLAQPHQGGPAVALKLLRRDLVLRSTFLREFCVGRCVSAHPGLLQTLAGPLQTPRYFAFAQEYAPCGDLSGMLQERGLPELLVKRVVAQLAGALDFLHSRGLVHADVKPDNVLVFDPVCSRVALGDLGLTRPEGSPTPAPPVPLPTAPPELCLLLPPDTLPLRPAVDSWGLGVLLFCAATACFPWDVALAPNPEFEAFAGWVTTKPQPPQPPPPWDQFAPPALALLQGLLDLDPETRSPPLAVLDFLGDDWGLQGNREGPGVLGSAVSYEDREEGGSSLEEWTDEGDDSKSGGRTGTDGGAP

[10] = tested on: Epidermal growth factor receptor (Homo sapiens), P00533 [UNDEFINED MUTATION]; test: Selectivity interaction (KinomeScan (DiscoverX)) EUB0000618a EGFR; conditions: at 10 µM
Sequence of Epidermal growth factor receptor (Homo sapiens), P00533 [UNDEFINED MUTATION] (P00533 whole entry, looked up, change not shown): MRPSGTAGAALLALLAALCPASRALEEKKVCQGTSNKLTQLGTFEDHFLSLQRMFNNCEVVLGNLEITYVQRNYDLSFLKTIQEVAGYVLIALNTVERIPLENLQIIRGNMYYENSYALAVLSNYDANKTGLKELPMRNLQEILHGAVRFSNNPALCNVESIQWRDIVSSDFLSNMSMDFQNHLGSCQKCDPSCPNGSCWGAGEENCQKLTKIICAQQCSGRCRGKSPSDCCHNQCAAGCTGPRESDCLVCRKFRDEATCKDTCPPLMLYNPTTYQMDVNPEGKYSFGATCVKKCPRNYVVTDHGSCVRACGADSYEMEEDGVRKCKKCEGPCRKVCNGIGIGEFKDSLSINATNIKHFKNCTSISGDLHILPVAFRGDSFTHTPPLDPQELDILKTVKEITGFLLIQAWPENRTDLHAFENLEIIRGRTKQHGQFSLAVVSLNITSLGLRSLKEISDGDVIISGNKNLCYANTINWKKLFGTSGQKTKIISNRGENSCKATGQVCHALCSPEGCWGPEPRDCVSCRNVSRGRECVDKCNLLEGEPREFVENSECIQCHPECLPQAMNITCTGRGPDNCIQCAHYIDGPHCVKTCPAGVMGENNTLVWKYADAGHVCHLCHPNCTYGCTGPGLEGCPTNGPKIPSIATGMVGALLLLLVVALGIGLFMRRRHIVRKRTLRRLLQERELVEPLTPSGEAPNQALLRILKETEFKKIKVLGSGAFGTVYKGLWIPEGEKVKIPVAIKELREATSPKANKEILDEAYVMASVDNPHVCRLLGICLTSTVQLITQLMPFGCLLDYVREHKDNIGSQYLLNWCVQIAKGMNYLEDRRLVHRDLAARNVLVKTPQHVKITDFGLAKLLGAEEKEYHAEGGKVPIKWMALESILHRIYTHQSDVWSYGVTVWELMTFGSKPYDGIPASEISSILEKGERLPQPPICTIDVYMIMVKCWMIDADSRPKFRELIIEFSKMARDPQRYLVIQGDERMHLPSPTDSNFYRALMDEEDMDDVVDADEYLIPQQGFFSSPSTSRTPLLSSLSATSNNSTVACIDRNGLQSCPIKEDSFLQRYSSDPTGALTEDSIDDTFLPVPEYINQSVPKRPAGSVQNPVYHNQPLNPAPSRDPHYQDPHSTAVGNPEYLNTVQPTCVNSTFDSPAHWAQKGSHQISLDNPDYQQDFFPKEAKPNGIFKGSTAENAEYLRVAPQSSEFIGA

[11] = molecular target: Misshapen-like kinase 1 (Homo sapiens, UniProt Q8N4C8); test: Selectivity interaction (KinomeScan (DiscoverX)) EUB0001619a MINK1; conditions: at 1 µM

Cn1cc(-n2cnc3c(NCc4nc5cc(Cl)c(Cl)cc5[nH]4)nc(N4CCOCC4)nc32)cn1
% of control [1]: -13.3%

CC(=O)c1cc(-c2ccccc2OCC2CC2)c2ncccn12
% of control [2]: 80% | % of control [3]: 115%

CCN(CC)CCCCNc1ncc2cc(-c3cc(OC)cc(OC)c3)c(NC(=O)NC(C)(C)C)nc2n1
% of control [4]: 100%

Cc1cc(F)c(C(=O)Nc2cccc(-c3nncn3C(C)C)n2)cc1-n1cnc(C2CC2)c1
% of control [5]: 100%

CC(=O)Nc1cccc(-n2c(=O)n(C3CC3)c(=O)c3c(Nc4ccc(I)cc4F)n(C)c(=O)c(C)c32)c1
% of control [6]: 95%

C=CC(=O)Nc1cc(-n2c(=O)ccc3cnc4ccc(-c5ccc(NS(C)(=O)=O)cc5)cc4c32)ccc1C
% of control ([7]; at 1 µM): 100% | % of control ([7]; at 10 µM): 90% | % of control ([8]; at 1 µM): 100% | % of control ([8]; at 10 µM): 82%

Nc1cnc(N2CCc3cc(S(=O)(=O)Nc4c(F)cc(Cl)cc4F)cc(N4CCCC4=O)c32)nc1 [TP-020n]
% of control [9]: 100%

O[C@H]1CC[C@H](Nc2ncc3nc(Nc4c(F)cc(F)cc4F)n([C@H]4CCOC4)c3n2)CC1
% of control [10]: 5.7%

N#Cc1cccc(-c2c[nH]c3ncnc(N4CCOCC4)c23)c1
% of control [11]: 46%
